{
  "source": "the supplement of paper PMC10307832",
  "test_in_all_cases": "relative viability (nuclei count vs DMSO), 5 days (fraction); higher = more cells survive",
  "key": {"Daporinad + Linsitinib": {"compound": "O=C(/C=C/c1cccnc1)NCCCCC1CCN(C(=O)c2ccccc2)CC1 [Daporinad] + C[C@]1(O)C[C@@H](c2nc(-c3ccc4ccc(-c5ccccc5)nc4c3)c3c(N)nccn32)C1 [Linsitinib] (partner 1 µM)", "summary_of_the_method": "(§1)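 Medians of duplicate plates are given as relative viability. That measure is the nuclei count in treated wells divided by the count in vehicle wells. Counts were taken on 4× images of lung cancer cell lines in 1536-well plates, 5 days after pin-tool dosing the day after seeding with one drug alone or a fixed anchor-drug dose plus five library-drug doses (not always all listed) in √10 steps.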"}, "Daporinad + Vorinostat": {"compound": "O=C(/C=C/c1cccnc1)NCCCCC1CCN(C(=O)c2ccccc2)CC1 [Daporinad] + O=C(CCCCCCC(=O)Nc1ccccc1)NO [Vorinostat] (partner 1 µM)", "summary_of_the_method": "as §1"}, "Daporinad + Olaparib": {"compound": "O=C(/C=C/c1cccnc1)NCCCCC1CCN(C(=O)c2ccccc2)CC1 [Daporinad] + O=C(c1cc(Cc2n[nH]c(=O)c3ccccc23)ccc1F)N1CCN(C(=O)C2CC2)CC1 [Olaparib] (partner 8 µM)", "summary_of_the_method": "as §1"}, "R406 + Decitabine": {"compound": "COc1cc(Nc2ncc(F)c(Nc3ccc4c(n3)NC(=O)C(C)(C)O4)n2)cc(OC)c1OC [R406] + Nc1ncn([C@H]2C[C@H](O)[C@@H](CO)O2)c(=O)n1 [Decitabine] (partner 2 µM)", "summary_of_the_method": "as §1"}},
  "data": [
    {"cell line": "UMC-11", "values": [
      {"measurement": "relative viability", "setting": "Daporinad + Linsitinib; first compound 0.0005 µM", "value": 1.02},
      {"measurement": "relative viability", "setting": "Daporinad + Linsitinib; first compound 0.001581 µM", "value": 0.975},
      {"measurement": "relative viability", "setting": "Daporinad + Linsitinib; first compound 0.005 µM", "value": 1.1},
      {"measurement": "relative viability", "setting": "Daporinad + Linsitinib; first compound 0.01581 µM", "value": 1.03},
      {"measurement": "relative viability", "setting": "Daporinad + Vorinostat; first compound 0.0005 µM", "value": 0.319},
      {"measurement": "relative viability", "setting": "Daporinad + Vorinostat; first compound 0.001581 µM", "value": 0.384},
      {"measurement": "relative viability", "setting": "Daporinad + Vorinostat; first compound 0.005 µM", "value": 0.426},
      {"measurement": "relative viability", "setting": "Daporinad + Vorinostat; first compound 0.01581 µM", "value": 0.413},
      {"measurement": "relative viability", "setting": "Daporinad + Olaparib; first compound 0.0005 µM", "value": 0.294},
      {"measurement": "relative viability", "setting": "Daporinad + Olaparib; first compound 0.001581 µM", "value": 0.339},
      {"measurement": "relative viability", "setting": "Daporinad + Olaparib; first compound 0.005 µM", "value": 0.343},
      {"measurement": "relative viability", "setting": "Daporinad + Olaparib; first compound 0.01581 µM", "value": 0.309},
      {"measurement": "relative viability", "setting": "R406 + Decitabine; first compound 0.08 µM", "value": 0.618},
      {"measurement": "relative viability", "setting": "R406 + Decitabine; first compound 0.253 µM", "value": 0.703},
      {"measurement": "relative viability", "setting": "R406 + Decitabine; first compound 0.8 µM", "value": 0.75},
      {"measurement": "relative viability", "setting": "R406 + Decitabine; first compound 2.53 µM", "value": 1.34},
      {"measurement": "relative viability", "setting": "R406 + Decitabine; first compound 8 µM", "value": 0.312}
    ]}
  ]
}
